Data taken from patent US6355657B1, “System for percutaneous delivery of opioid analgesics” (Atrix Laboratories, Inc., priority 1998, dated 2002).
Values joined by “and” are separate entries in the source; they are usually repeats but may differ in a detail not shown here. Identical values can stand only once. Counter-ions that a name gives are not always drawn. Like-named read-outs stand apart in the source and are kept apart here.

Experiments:
[1] = cited from earlier work
[2] = Solubility of loperamide hydrochloride in the receptor solution (spiked receptor solutions); assay type: physicochemical; conditions: 10% (v/v) N-methyl-2-pyrrolidone in water
Source text: The receptor solution was 10% (v/v) N-methyl-2-pyrrolidone in water.

[3] = Solubility of loperamide hydrochloride in solvents and solvent mixtures (titration to cloud point, HPLC of saturated solutions); assay type: physicochemical
Procedure: The solubility studies of loperamide hydrochloride were initiated using the formulation systems shown in Table I through multiple titrations confirmned by HPLC analysis of saturated solutions. For systems having at least 5% loperamide hydrochloride solubility, the transport of loperamide hydrochloride across the skin was characterized by 500 μL and 20 μL dosing of excised human cadaver skin using a Franz in vitro skin diffusion cell.
Solvent systems were mixed according to weight. For combinations of solvents that were single phase, loperamide hydrochloride was added in 0.1% increments until the system clouded. This was taken as the approximate saturation value for loperamide hydrochloride in that system. The system was then allowed to remain undisturbed for at least 24 hours. Often large crystals of loperamide hydrochloride would form upon standing. This solution was then filtered, appropriately diluted and assayed according to the HPLC method described below.

For `CN(C)C(=O)C(CCN1CCC(O)(c2ccc(Cl)cc2)CC1)(c1ccccc1)c1ccccc1` [loperamide hydrochloride, 4-(p-chlorophenyl)-4-hydroxy-N,N-dimethyl-α,(α-diphenyl-1-piperidinebutyramide hydrochloride], which solubility ([1]; 2-butanone) is on record?
The solubility was 0.18 grams per 100 mL solvent.

What about the solubility ([1]; 2-propanol) of the same compound?
The solubility was 1.11 grams per 100 mL solvent.

And the solubility ([1]; 4-methyl-2-pentanone)?
Its solubility is 0.020 grams per 100 mL solvent.

What about the solubility ([1]; N,N-dimethylformamide) of the same compound?
Its solubility is 10.3 grams per 100 mL solvent.

What about the solubility ([1]; acetone) of the same compound?
Its solubility is 0.20 grams per 100 mL solvent.

What about the solubility ([1]; citrate-phosphate buffer (pH 6.1)) of the same compound?
Its solubility is 0.008 grams per 100 mL solvent.

What about the solubility ([1]; citrate-phosphate buffer (pH 7.9)) of the same compound?
Its solubility is “less than 0.001 grams per 100 mL solvent”.

What about the solubility ([1]; dichloromethane) of the same compound?
The solubility was 35.1 grams per 100 mL solvent.

And the solubility ([1]; diethyl ether)?
Its solubility is “less than 0.001 grams per 100 mL solvent”.

And the solubility ([1]; dimethylsulfoxide)?
The solubility was 20.5 grams per 100 mL solvent.

What about the solubility ([1]; ethanol) of the same compound?
Its solubility is 5.37 grams per 100 mL solvent.

What about the solubility ([1]; ethyl acetate) of the same compound?
The solubility was 0.035 grams per 100 mL solvent.

What about the solubility ([1]; hexane) of the same compound?
Its solubility is “less than 0.001 grams per 100 mL solvent”.

And the solubility ([1]; methanol)?
Its solubility is 28.6 grams per 100 mL solvent.

And the solubility ([1]; polyethylene glycol 400)?
The solubility was 1.40 grams per 100 mL solvent.

What about the solubility ([1]; propylene glycol) of the same compound?
The solubility was 5.64 grams per 100 mL solvent.

And the solubility ([1]; tetrahydrofuran)?
The solubility was 0.32 grams per 100 mL solvent.

What about the solubility ([1]; toluene) of the same compound?
The solubility was 0.001 grams per 100 mL solvent.

What about the solubility ([1]; water (at physiological pH)) of the same compound?
The solubility was 0.002 grams per 100 mL solvent.

And the solubility ([1]; water (pH 1.7))?
Its solubility is 0.14 grams per 100 mL solvent.

What about the “solubility of loperamide hydrochloride in receptor solution” value [2] of the same compound?
Its value is “greater than 380 ppm”.

What about the loperamide hydrochloride solubility ([3]; 1:1:1 propylene glycol:ethanol:ethyl acetate) of the same compound?
The loperamide hydrochloride solubility was “greater than 5 % (w/w)”.

And the loperamide hydrochloride solubility ([3]; 1:1:4:3 N-methyl-2-pyrrolidone:propylene glycol:alcohol:water)?
Its loperamide hydrochloride solubility is “greater than 6 % (w/w)”.

What about the loperamide hydrochloride solubility ([3]; 1:1:4:5 N-methyl-2-pyrrolidone:ethyl acetate:ethanol:water) of the same compound?
Its loperamide hydrochloride solubility is “greater than 5 % (w/w)”.

What about the loperamide hydrochloride solubility ([3]; 10% (v/v) water, 18% (v/v) N-methyl-2-pyrrolidone and 72% (v/v) ethanol ternary blend (FIG. 4)) of the same compound?
The loperamide hydrochloride solubility was 19 % (w/w).

What about the loperamide hydrochloride solubility ([3]; 60/40 propylene glycol/ethyl acetate solvent blend (FIG. 2)) of the same compound?
The loperamide hydrochloride solubility was 18 % (w/w).

And the loperamide hydrochloride solubility ([3]; combination of propylene carbonate and ethanol, ratio not stated (FIG. 1))?
Its loperamide hydrochloride solubility is “exceeded 20 % (w/w)”.

And the “loperamide hydrochloride in solution” value ([3]; formulations of mixtures of water, alcohols and organic solvents, ambient temperatures)?
The value was “up to 30 % (w/w)”.

And the loperamide hydrochloride solubility ([3]; most non-aqueous organic solvents (exceptions NMP, propylene glycol, ethanol))?
Its loperamide hydrochloride solubility is “less than 1 % (w/w)”.

And the “Loperamide hydrochloride Solubility (w/w)” value ([3]; solvent Ethanol, hydrochloride)?
Its value is 10 % (w/w).

And the “Loperamide hydrochloride Solubility (w/w)” value ([3]; solvent Isopropyl Myristate)?
Its value is 0.001% (w/w).

And the “Loperamide hydrochloride Solubility (w/w)” value ([3]; solvent N-methyl-2-pyrrolidone, hydrochloride)?
Its value is 16 % (w/w).

What about the “Loperamide hydrochloride Solubility (w/w)” value ([3]; solvent Propylene Glycol, hydrochloride) of the same compound?
Its value is 9 % (w/w) and 8 % (w/w).

And the loperamide hydrochloride solubility ([3]; the solvents of Table 1 except N-methyl-2-pyrrolidone, ethanol and propylene glycol)?
The loperamide hydrochloride solubility was ≤ 0.5 % (w/w).
